Laboratory results reported in PubChem BioAssay (NCI).
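Method: 48-hour compound exposure of cells in 96-well plates, five concentrations, linear interpolation of endpoints. At the TGI there is no net growth.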 Where a SMILES comes first, the peptide text is derived from it. The star is where a group is joined. Boc = CC(C)(C)OC(=O)*

Columns and labels:
Assay in all cases: inhibition of tumour cell growth, NCI panel, 48 h
NCI-H226 lung = tested on: NCI-H226 lung
SK-OV-3 ovarian = tested on: SK-OV-3 ovarian
MDA-MB-435 = tested on: MDA-MB-435
SK-MEL-5 melanoma = tested on: SK-MEL-5 melanoma
NCI/ADR-RES ovarian = tested on: NCI/ADR-RES ovarian
786-0 renal = tested on: 786-0 renal
A549 NSCLC = tested on: A549 NSCLC
K-562 leukemia = tested on: K-562 leukemia
SF-268 CNS = tested on: SF-268 CNS
IGROV1 ovarian = tested on: IGROV1 ovarian
SK-MEL-2 melanoma = tested on: SK-MEL-2 melanoma
MALME-3M melanoma = tested on: MALME-3M melanoma
OVCAR-4 ovarian = tested on: OVCAR-4 ovarian
SNB-75 CNS = tested on: SNB-75 CNS
SN12C renal = tested on: SN12C renal
HS 578T breast = tested on: HS 578T breast
HCT-116 colon = tested on: HCT-116 colon
HCC-2998 colon = tested on: HCC-2998 colon
MDA-N = tested on: MDA-N
UACC-62 melanoma = tested on: UACC-62 melanoma
DU-145 prostate = tested on: DU-145 prostate
NCI-H522 lung = tested on: NCI-H522 lung
MDA-MB-231 breast = tested on: MDA-MB-231 breast
NCI-H460 lung = tested on: NCI-H460 lung
OVCAR-5 ovarian = tested on: OVCAR-5 ovarian
PC-3 prostate = tested on: PC-3 prostate
OVCAR-3 ovarian = tested on: OVCAR-3 ovarian
TK-10 renal = tested on: TK-10 renal
T-47D breast = tested on: T-47D breast
CAKI-1 renal = tested on: CAKI-1 renal
OVCAR-8 ovarian = tested on: OVCAR-8 ovarian
ACHN renal = tested on: ACHN renal
KM12 colon = tested on: KM12 colon
CCRF-CEM leukemia = tested on: CCRF-CEM leukemia
COLO 205 colon = tested on: COLO 205 colon
SK-MEL-28 melanoma = tested on: SK-MEL-28 melanoma
HOP-62 NSCLC = tested on: HOP-62 NSCLC
LOX IMVI melanoma = tested on: LOX IMVI melanoma
SNB-19 CNS = tested on: SNB-19 CNS
NCI-H23 lung = tested on: NCI-H23 lung
UACC-257 melanoma = tested on: UACC-257 melanoma
SW-620 colon = tested on: SW-620 colon
M14 melanoma = tested on: M14 melanoma
U251 CNS = tested on: U251 CNS
RPMI-8226 leukemia = tested on: RPMI-8226 leukemia
RXF 393 renal = tested on: RXF 393 renal
MCF7 breast = tested on: MCF7 breast
SF-295 CNS = tested on: SF-295 CNS
HT29 colon = tested on: HT29 colon
EKVX NSCLC = tested on: EKVX NSCLC
HCT-15 colon = tested on: HCT-15 colon
MOLT-4 leukemia = tested on: MOLT-4 leukemia
SR leukemia = tested on: SR leukemia
HOP-92 NSCLC = tested on: HOP-92 NSCLC
HL-60(TB) leukemia = tested on: HL-60(TB) leukemia
SF-539 CNS = tested on: SF-539 CNS
A498 renal = tested on: A498 renal
UO-31 renal = tested on: UO-31 renal

Compound: Nc1nc(N)c2nc(CNc3ccc(C(=O)NC(CCC(=O)O)C(=O)O)cc3F)cnc2n1 (stereo not given)
- TGI (NCI-H226 lung): > 100 µM
- TGI (SK-OV-3 ovarian): > 100 µM
- TGI (MDA-MB-435): > 100 µM
- TGI (SK-MEL-5 melanoma): > 100 µM
- TGI (NCI/ADR-RES ovarian): > 100 µM
- TGI (786-0 renal): > 100 µM
- TGI (A549 NSCLC): > 100 µM
- TGI (K-562 leukemia): > 76.7 µM
- TGI (SF-268 CNS): > 100 µM
- TGI (IGROV1 ovarian): > 100 µM
- TGI (SK-MEL-2 melanoma): > 100 µM
- TGI (MALME-3M melanoma): > 100 µM
- TGI (OVCAR-4 ovarian): > 100 µM
- TGI (SNB-75 CNS): > 100 µM
- TGI (SN12C renal): > 100 µM
- TGI (HS 578T breast): > 100 µM
- TGI (HCT-116 colon): > 100 µM
- TGI (HCC-2998 colon): > 100 µM
- TGI (MDA-N): > 100 µM
- TGI (UACC-62 melanoma): > 100 µM
- TGI (DU-145 prostate): > 100 µM
- TGI (NCI-H522 lung): > 100 µM
- TGI (MDA-MB-231 breast): > 100 µM
- TGI (NCI-H460 lung): > 100 µM
- TGI (OVCAR-5 ovarian): > 100 µM
- TGI (PC-3 prostate): > 100 µM
- TGI (OVCAR-3 ovarian): > 100 µM
- TGI (TK-10 renal): > 100 µM
- TGI (T-47D breast): > 100 µM
- TGI (CAKI-1 renal): > 100 µM
- TGI (OVCAR-8 ovarian): > 100 µM
- TGI (ACHN renal): > 100 µM
- TGI (KM12 colon): > 100 µM
- TGI (CCRF-CEM leukemia): > 100 µM
- TGI (COLO 205 colon): > 100 µM
- TGI (SK-MEL-28 melanoma): > 100 µM
- TGI (HOP-62 NSCLC): > 100 µM
- TGI (LOX IMVI melanoma): > 100 µM
- TGI (SNB-19 CNS): > 100 µM
- TGI (NCI-H23 lung): > 100 µM
- TGI (UACC-257 melanoma): > 100 µM
- TGI (SW-620 colon): > 100 µM
- TGI (M14 melanoma): > 100 µM
- TGI (U251 CNS): > 100 µM
- TGI (RPMI-8226 leukemia): 67.2 µM
- TGI (RXF 393 renal): > 100 µM
- TGI (MCF7 breast): > 100 µM
- TGI (SF-295 CNS): > 100 µM
- TGI (HT29 colon): > 100 µM
- TGI (EKVX NSCLC): > 100 µM
- TGI (HCT-15 colon): > 100 µM

Compound: CC(C)(C)OC(=O)NC(Cc1ccccc1)C(=O)N1CCCC1C(N)=O (stereo not drawn) (Boc-Phe-Pro-NH2; configuration not given here)
- TGI (SK-OV-3 ovarian): > 100 µM
- TGI (MDA-MB-435): > 100 µM
- TGI (SK-MEL-5 melanoma): > 100 µM
- TGI (A549 NSCLC): > 100 µM
- TGI (K-562 leukemia): > 100 µM
- TGI (SF-268 CNS): > 100 µM
- TGI (IGROV1 ovarian): > 100 µM
- TGI (MALME-3M melanoma): > 100 µM
- TGI (MOLT-4 leukemia): > 100 µM
- TGI (OVCAR-4 ovarian): > 100 µM
- TGI (HCT-116 colon): > 100 µM
- TGI (HCC-2998 colon): > 100 µM
- TGI (MDA-N): > 100 µM
- TGI (UACC-62 melanoma): > 100 µM
- TGI (DU-145 prostate): > 100 µM
- TGI (NCI-H522 lung): > 100 µM
- TGI (SR leukemia): > 100 µM
- TGI (MDA-MB-231 breast): > 100 µM
- TGI (NCI-H460 lung): > 100 µM
- TGI (PC-3 prostate): > 100 µM
- TGI (OVCAR-3 ovarian): > 100 µM
- TGI (HOP-92 NSCLC): 74 µM
- TGI (TK-10 renal): > 100 µM
- TGI (T-47D breast): > 100 µM
- TGI (CAKI-1 renal): > 100 µM
- TGI (OVCAR-8 ovarian): > 100 µM
- TGI (ACHN renal): > 100 µM
- TGI (CCRF-CEM leukemia): > 100 µM
- TGI (COLO 205 colon): > 100 µM
- TGI (SK-MEL-28 melanoma): > 100 µM
- TGI (HOP-62 NSCLC): > 100 µM
- TGI (LOX IMVI melanoma): > 100 µM
- TGI (HL-60(TB) leukemia): > 100 µM
- TGI (SNB-19 CNS): > 100 µM
- TGI (UACC-257 melanoma): > 100 µM
- TGI (SW-620 colon): > 100 µM
- TGI (M14 melanoma): > 100 µM
- TGI (RPMI-8226 leukemia): > 100 µM
- TGI (MCF7 breast): > 100 µM
- TGI (SF-295 CNS): > 100 µM
- TGI (HT29 colon): > 100 µM
- TGI (EKVX NSCLC): > 100 µM
- TGI (HCT-15 colon): > 100 µM

Compound: Cc1nc2ccc(Cl)cc2c(Cl)c1CCCl
- TGI (NCI-H226 lung): > 100 µM
- TGI (SK-OV-3 ovarian): > 100 µM
- TGI (MDA-MB-435): 31.2 µM
- TGI (SK-MEL-5 melanoma): > 100 µM
- TGI (NCI/ADR-RES ovarian): > 100 µM
- TGI (786-0 renal): > 100 µM
- TGI (A549 NSCLC): > 100 µM
- TGI (K-562 leukemia): > 100 µM
- TGI (SF-268 CNS): > 100 µM
- TGI (IGROV1 ovarian): > 100 µM
- TGI (SK-MEL-2 melanoma): > 100 µM
- TGI (MALME-3M melanoma): > 100 µM
- TGI (MOLT-4 leukemia): > 100 µM
- TGI (SNB-75 CNS): > 100 µM
- TGI (SN12C renal): > 100 µM
- TGI (HS 578T breast): > 100 µM
- TGI (HCT-116 colon): > 100 µM
- TGI (HCC-2998 colon): > 100 µM
- TGI (MDA-N): 40.9 µM
- TGI (UACC-62 melanoma): > 100 µM
- TGI (DU-145 prostate): > 100 µM
- TGI (NCI-H522 lung): > 100 µM
- TGI (SF-539 CNS): > 100 µM
- TGI (SR leukemia): > 100 µM
- TGI (MDA-MB-231 breast): > 100 µM
- TGI (NCI-H460 lung): > 100 µM
- TGI (OVCAR-5 ovarian): > 100 µM
- TGI (PC-3 prostate): > 100 µM
- TGI (OVCAR-3 ovarian): > 100 µM
- TGI (HOP-92 NSCLC): 94.2 µM
- TGI (TK-10 renal): > 100 µM
- TGI (A498 renal): > 100 µM
- TGI (CAKI-1 renal): > 100 µM
- TGI (OVCAR-8 ovarian): > 100 µM
- TGI (ACHN renal): > 100 µM
- TGI (KM12 colon): > 100 µM
- TGI (UO-31 renal): > 100 µM
- TGI (CCRF-CEM leukemia): > 100 µM
- TGI (COLO 205 colon): > 100 µM
- TGI (SK-MEL-28 melanoma): > 100 µM
- TGI (HOP-62 NSCLC): > 100 µM
- TGI (LOX IMVI melanoma): > 100 µM
- TGI (HL-60(TB) leukemia): > 100 µM
- TGI (SNB-19 CNS): > 100 µM
- TGI (NCI-H23 lung): > 100 µM
- TGI (UACC-257 melanoma): > 100 µM
- TGI (SW-620 colon): > 100 µM
- TGI (M14 melanoma): > 100 µM
- TGI (U251 CNS): > 100 µM
- TGI (RPMI-8226 leukemia): > 100 µM
- TGI (RXF 393 renal): > 100 µM
- TGI (MCF7 breast): 99.2 µM
- TGI (SF-295 CNS): > 100 µM
- TGI (HT29 colon): > 100 µM
- TGI (EKVX NSCLC): > 100 µM
- TGI (HCT-15 colon): > 100 µM
